Molecular target: PI3K-alpha (Homo sapiens (Human), UniProt P42336)
Experiment: HTRF PI3K biochemical assay, alpha isoform
Settings: ratio PI3K-alpha IC50 value/PI3K-delta IC50 value
Excerpt: HTRF PI3K Biochemical Assay to Measure Intrinsic Potency of Compound Inhibitors
The PI3-Kinase biochemical assays were developed to measure the intrinsic potency and compound dependent inhibition of the alpha, beta, delta, and gamma PI3K isoform enzymes. This assay was developed and further optimized from a kit produced by Upstate (Millipore catalog #33-047) and has been configured for HTS and SAR screening. Briefly, this procedure exploits the exquisite specificity and high affinity binding of enzyme reaction substrate phosphatidyl(3,4,5)triphosphate (PIP3) to the GRP1 pleckstrin homology (PH) domain to generate the signal. In the absence of PIP3, an HTRF (Homogeneous Time-Resolved Fluorescence energy transfer) complex is formed consisting of europium (Eu)-labeled anti-GST, GST tagged GRP1-PH domain, biotin-PIP3 and streptavidin conjugated APC. The native PIP3 produced by PI3-Kinase activity disrupts in a competitive manner the biotin-PIP3 from the PH domain, resulting in the loss of energy transfer (HTRF complex) and a decrease in the signal. The format of this assay is the same for all 4 isoforms of PI3K; the differences lie in the concentration of enzyme used to achieve robust assay window. The alpha, beta, and delta assays are run at 0.5, 1, and 0.3 nM enzymes and the gamma assay is run at 5 nM enzyme. The ATP concentration is 100 uM in the alpha, beta, and delta assays and 50 uM ATP in the gamma assay. All reactions are run at 5 uM PIP2.
Compounds are serially diluted (3-fold in 100% DMSO) across a 384-well polypropylene source plated from column 3 to column 12 and column 13 to column 22, to yield 10 concentration dose response for each test compound. Columns 1, 2, 23 and 24 contain either only DMSO or pharmacological known control inhibitor.
The PI3-Kinase biochemical assay was optimized using the HTRF kit provided by Upstate (Millipore). The assay kit contains six reagents: 1) 4× Reaction Buffer; 2) native PIP2 (substrate); 3) Stop (EDTA); 4) Detection Mix A (Streptavidin-APC); 5) Detection Mix B (Eu-labeled Anti-GST plus GST-tagged PH-domain); 6) Detection Mix C.
PI3Kinase Reaction Buffer is prepared by dilution the stock 1:4 with de-ionized water. […] Enzyme addition and compound pre-incubation are initiated by the addition of 1.25 ul of PI3K (at twice its final concentration) in the 1× reaction buffer to all wells using a BioRaptor. Plates are incubated at room temperature for 15 minutes. Reactions are initiated by addition of 1.25 ul of 2× substrate solution (PIP2 and ATP in 1× reaction buffer) using BioRaptor. Plates are incubated in humidified chamber at room temperature for one hour. Reactions are quenched by addition of 0.625 uL of stop solution to all wells using the BioRaptor. The quenched reactions are then processed to detect product formation by adding 0.625 uL of Detection Solution to all wells using the BioRaptor (Detection mix C, Detection Mix A, and Detection Mix B combined together in an 18:1:1 ratio prepared 2 hours prior to use).
The loss of the HTRF signal is due to the displacement of biotinylated-PIP3 from the PH domain by the PI3K-dependent conversion of PIP2 to PIP3. This loss of signal is nonlinear with respect to both increasing product and time. This non-linear detection will impact accuracy of IC50 calculations; therefore, there is a need for a correction factor to obtain more accurate IC50 values. This correction is derived from a PIP3 standard curve run in a separate assay plate. All data were calculated using the ratio of acceptor (APC) to donor (Europium) fluorescence in each well of the assay plate. […] An IC50 was then calculated fitting the % inhibition data to the equation: % inhibition=min+(Max−min)/1+([inhibitor]/IC50)^n) where min is the % inhibition […], max is the signal in DMSO control, and n is the Hill slope.

Chain of PI3K-alpha (P42336 whole entry, looked up, canonical isoform): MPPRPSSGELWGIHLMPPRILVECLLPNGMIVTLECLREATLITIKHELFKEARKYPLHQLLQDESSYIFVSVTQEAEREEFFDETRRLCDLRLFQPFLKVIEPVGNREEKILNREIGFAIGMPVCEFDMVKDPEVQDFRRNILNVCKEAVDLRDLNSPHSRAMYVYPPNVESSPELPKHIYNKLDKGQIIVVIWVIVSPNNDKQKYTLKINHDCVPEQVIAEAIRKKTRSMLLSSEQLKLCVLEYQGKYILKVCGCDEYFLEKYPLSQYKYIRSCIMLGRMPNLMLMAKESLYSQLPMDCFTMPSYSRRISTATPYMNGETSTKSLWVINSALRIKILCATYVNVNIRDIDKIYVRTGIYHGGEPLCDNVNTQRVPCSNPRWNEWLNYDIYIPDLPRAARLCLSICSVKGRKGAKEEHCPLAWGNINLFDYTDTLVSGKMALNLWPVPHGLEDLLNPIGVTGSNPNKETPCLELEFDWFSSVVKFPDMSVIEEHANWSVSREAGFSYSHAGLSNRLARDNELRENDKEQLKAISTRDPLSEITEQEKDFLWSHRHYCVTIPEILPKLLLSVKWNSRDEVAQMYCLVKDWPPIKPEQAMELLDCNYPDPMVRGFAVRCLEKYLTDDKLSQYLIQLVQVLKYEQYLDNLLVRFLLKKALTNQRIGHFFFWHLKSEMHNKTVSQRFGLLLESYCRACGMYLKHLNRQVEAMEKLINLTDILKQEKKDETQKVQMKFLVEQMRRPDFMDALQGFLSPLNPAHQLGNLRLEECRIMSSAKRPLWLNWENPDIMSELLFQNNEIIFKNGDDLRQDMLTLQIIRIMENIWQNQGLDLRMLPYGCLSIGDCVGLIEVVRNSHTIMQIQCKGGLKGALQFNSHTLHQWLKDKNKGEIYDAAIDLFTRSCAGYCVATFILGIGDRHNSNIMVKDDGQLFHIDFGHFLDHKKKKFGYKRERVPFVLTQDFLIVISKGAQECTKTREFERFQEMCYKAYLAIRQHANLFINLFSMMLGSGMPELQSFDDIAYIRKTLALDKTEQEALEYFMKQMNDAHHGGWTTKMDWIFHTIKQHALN
Chain of PI3K-alpha (P27986 whole entry partner, looked up, canonical isoform): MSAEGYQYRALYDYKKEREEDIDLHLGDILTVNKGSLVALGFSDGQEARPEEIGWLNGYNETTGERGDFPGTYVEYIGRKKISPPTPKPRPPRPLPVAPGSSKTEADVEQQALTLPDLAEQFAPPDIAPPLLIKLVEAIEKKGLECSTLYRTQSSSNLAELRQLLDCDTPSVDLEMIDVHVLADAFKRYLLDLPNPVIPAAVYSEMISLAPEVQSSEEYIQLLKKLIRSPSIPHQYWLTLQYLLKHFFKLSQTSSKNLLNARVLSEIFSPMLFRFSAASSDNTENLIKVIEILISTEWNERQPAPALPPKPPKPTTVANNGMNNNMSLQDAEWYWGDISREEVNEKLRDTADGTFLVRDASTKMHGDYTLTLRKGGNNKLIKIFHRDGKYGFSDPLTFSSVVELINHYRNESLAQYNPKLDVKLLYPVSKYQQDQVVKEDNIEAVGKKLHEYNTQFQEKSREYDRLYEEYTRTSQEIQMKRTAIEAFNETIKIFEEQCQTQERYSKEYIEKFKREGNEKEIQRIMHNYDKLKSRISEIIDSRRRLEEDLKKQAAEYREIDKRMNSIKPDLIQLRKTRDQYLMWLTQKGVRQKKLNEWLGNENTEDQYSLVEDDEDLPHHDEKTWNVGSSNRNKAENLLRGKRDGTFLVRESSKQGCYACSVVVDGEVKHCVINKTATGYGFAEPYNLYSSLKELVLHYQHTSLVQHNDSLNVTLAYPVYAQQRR

Row | SMILES | Relative Selectivity versus PI3Kalpha
1 | CCn1c(-c2cnc(C)nc2)nc2c(OC3CN(C(=O)C4CC4)CC3O)ncnc21 (single isomer, unassigned) [Compound 2-100, [(3R,4R) or (3S,4S)]-trans-1-(cyclopropylcarbonyl)-4-{[9-ethyl-8-(2-methylpyrimidin-5-yl)-9H-purin-6-yl]oxy}pyrrolidin-3-ol] | >10
2 | CCn1c(-c2cnc(C)nc2)nc2c(OC3CN(C(=O)C4CC4)CC3OC)ncnc21 (single isomer, unassigned) [Compound 2-115] | >10
3 | CCn1c(-c2cnc(C)nc2)nc2c(O[C@H]3CCN(C(=O)C4CCC4C)C3)ncnc21 (single isomer, unassigned) [Compound 2-117, 9-ethyl-6-({(3S)-1-[([(1R,2S) or (1R,2R) or (1S,2R) or (1S,2S)]-methylcyclobutyl)carbonyl]pyrrolidin-3-yl}oxy)-8-(2-methylpyrimidin-5-yl)-9H-purine] | >10
4 | CCn1c(-c2cnc(C)nc2)nc2c(O[C@H]3CCN(C(=O)C4CCC4C)C3)ncnc21 (single isomer, unassigned) [Compound 2-118, 9-ethyl-6-({(3S)-1-[([(1R,2S) or (1R,2R) or (1S,2R) or (1S,2S)]-methylcyclobutyl)carbonyl]pyrrolidin-3-yl}oxy)-8-(2-methylpyrimidin-5-yl)-9H-purine] | >10
5 | CCn1c(-c2cnc(C)nc2)nc2c(O[C@H]3CCN(C(=O)C4CCC4C)C3)ncnc21 (single isomer, unassigned) [Compound 2-119, 9-ethyl-6-({(3S)-1-[([(1R,2S) or (1R,2R) or (1S,2R) or (1S,2S)]-methy]cyclobutyl)carbonyl]pyrrolidin-3-yl}oxy)-8-(2-methylpyrimidin-5-yl)-9H-purine] | >10
6 | CCn1c(-c2cnc(C)nc2)nc2c(O[C@H]3CCN(C(=O)C4CCC4C)C3)ncnc21 (single isomer, unassigned) [Compound 2-120, 9-ethyl-6-({(3S)-1-[([(1R,2S) or (1R,2R) or (1S,2R) or (1S,2S)]-methylcyclobutyl)carbonyl]pyrrolidin-3-yl}oxy)-8-(2-methylpyrimidin-5-yl)-9H-purine] | >10
7 | CCn1c(-c2cnc(C)nc2)nc2c(O[C@H]3CCN(C(=O)C4CC4C(F)F)C3)ncnc21 (single isomer, unassigned) [Compound 2-124, 6-{[(3S)-{(1S,2S)- or (1R,2R)-[2-(difluoromethyl)cyclopropyl]carbonyl}pyrrolidin-3-yl]oxy}-9-ethyl-8-(2-methylpyrimidin-5-yl)-9H-purine] | >10
8 | CCn1c(-c2cnc(C)nc2)nc2c(O[C@H]3CCN(C(=O)C4CC4C(F)F)C3)ncnc21 (single isomer, unassigned) [Compound 2-125, 6-{[(3S)-1-{(1S,2S)- or (1R,2R)-[2-(difluoromethyl)cyclopropyl]carbonyl}pyrrolidin-3-yl]oxy}-9-ethyl-8-(2-methylpyrimidin-5-yl)-9H-purine] | >10
9 | CCn1c(-c2cnc(C)nc2)nc2c(O[C@H]3CCN(C(=O)C4CC4(C)C)C3)ncnc21 (single isomer, unassigned) [Compound 2-126, 6-({(3S)-1-[S- or R-(2,2-dimethylcyclopropyl)carbonyl]pyrrolidin-3-yl}oxy)-9-ethyl-8-(2-methylpyrimidin-5-yl)-9H-purine] | >10
10 | CCn1c(-c2cnc(C)nc2)nc2c(O[C@H]3CCN(C(=O)C4CC4(C)C)C3)ncnc21 (single isomer, unassigned) [Compound 2-127, 6-({(3S)-1-[S- or R-(2,2-dimethylcyclopropyl)carbonyl]pyrrolidin-3-yl}oxy)-9-ethyl-8-(2-methylpyrimidin-5-yl)-9H-purine] | >10
11 | CCn1c(-c2cnc(C)nc2)nc2c(O[C@H]3CCN(C(=O)C4CC4CO)C3)ncnc21 (single isomer, unassigned) [Compound 2-130, (1S,2S)- or (1R,2R)-{[(3S)-3-{[9-ethyl-8-(2-methylpyrimidin-5-yl)-9H-purin-6-yl]oxy}pyrrolidin-1-yl]carbonyl}cyclopropyl)methanol] | >10
12 | CCn1c(-c2cnc(C)nc2)nc2c(O[C@H]3CCN(C(=O)C4CC4CO)C3)ncnc21 (single isomer, unassigned) [Compound 2-131, (1S,2S)- or (1R,2R)-{[(3S)-3-{[9-ethyl-8-(2-methylpyrimidin-5-yl)-9H-purin-6-yl]oxy}pyrrolidin-1-yl]carbonyl}cyclopropyl)methanol] | >10
13 | CCn1c(-c2cnc(C)nc2)nc2c(O[C@H]3CCN(C(=O)C4CC4CF)C3)ncnc21 (single isomer, unassigned) [Compound 2-132, 9-ethyl-6-{[(3S)-1-{[(1S,2S)- or (1R,2R)-2-(fluoromethyl)cyclopropyl]carbonyl}pyrrolidin-3-yl]oxy}-8-(2-methylpyrimidin-5-yl)-9H-purine] | >10
14 | CCn1c(-c2cnc(C)nc2)nc2c(O[C@H]3CCN(C(=O)C4CC4CF)C3)ncnc21 (single isomer, unassigned) [Compound 2-133, 9-ethyl-6-{[(3S)-1-{[(1S,2S)- or (1R,2R)-2-(fluoromethyl)cyclopropyl]carbonyl}pyrrolidin-3-yl]oxy}-8-(2-methylpyrimidin-5-yl)-9H-purine] | >10
15 | CCn1c(-c2cnc(C)nc2)nc2c(O[C@H]3CCN(C(=O)C4CC4F)C3)ncnc21 (single isomer, unassigned) [Compound 2-134, 9-ethyl-6-(((3S)-1-[((1R,2R)- or (1S,2S)-2-fluorocyclopropyl)carbonyl]pyrrolidin-3-yl}oxy)-8-(2-methylpyrimidin-5-yl)-9H-purine] | >10
16 | CCn1c(-c2cnc(C)nc2)nc2c(O[C@H]3CCN(C(=O)C4CC4F)C3)ncnc21 (single isomer, unassigned) [Compound 2-135, 9-ethyl-6-({(3S)-1-[((1R,2R)- or (1S,2S)-2-fluorocyclopropyl)carbonyl]pyrrolidin-3-yl}oxy)-8-(2-methylpyrimidin-5-yl)-9H-purine] | >10
17 | CCn1c(-c2cnc(C)nc2)nc2c(OC3CN(C(=O)C4CC4)CC3F)ncnc21 (single isomer, unassigned) [Compound 2-137, 6-{[1-(cyclopropylcarbonyl)-(3S,4S)- or (3R,4R)-4-fluoropyrrolidin-3-yl]oxy}-9-ethyl-8-(2-methylpyrimidin-5-yl)-9H-purine] | >10
18 | CCn1c(-c2cnc(C)nc2)nc2c(OC3CN(C(=O)C4CC4)CC3F)ncnc21 (single isomer, unassigned) [Compound 2-138, 6-{[1-(cyclopropylcarbonyl)-(3S,4S)- or (3R,4R)-4-fluoropyrrolidin-3-yl]oxy}-9-ethyl-8-(2-methylpyrimidin-5-yl)-9H-purine] | >10
19 | CCC1CN(C(=O)C2CC2)C[C@H]1Oc1ncnc2c1nc(-c1cnc(C)nc1)n2CC (single isomer, unassigned) [Compound 3-47, [3R,4S or 3S,4R]-6-{[1-(cyclopropylcarbonyl)-4-ethylpyrrolidin-3-yl]oxy}-9-ethyl-8-(2-methylpyrimidin-5-yl)-9H-purine] | >10
20 | CCn1c(-c2cnc(C)nc2)nc2c(OC3CN(C(=O)C4CC4)CC3C)ncnc21 (single isomer, unassigned) [Compound 3-65, [(3S,4R) or (3R,4S)]6-{[1-(cyclopropylcarbonyl)-4-methylpyrrolidin-3-yl]oxy}-9-ethyl-8-(2-methylpyrimidin-5-yl)-9H-purine] | >10

Source: patent US9730940B2, “Purine inhibitors of human phosphatidylinositol 3-kinase delta” (priority 2012, dated 2017)
